# Experimental data reported in patent US8815854B2, “Substituted imidazopyridinyl compounds” (ArQule, Inc., priority 2011, dated 2014).
# Target: Full-length inactive AKT1 (Homo sapiens (Human), UniProt P31749)
# Test: Inactive Akt Alpha Screen Assay (AKT1, crosstide substrate)
# Details: full-length inactive AKT1 activated by PDK1 and MAPKAPK2, lipid vesicles, 50 μM ATP; biotinylated crosstide substrate; read-out: Akt1 biochemical assay IC50 AlphaScreen crosstide
# Method: AKT1 activity was assayed using the GSK3-derived biotinylated peptide substrate, crosstide (biotin-GRPRTSSFAEG), and AlphaScreen™ (Amplified Luminescent Proximity Homogeneous Assay) technology. AKT1 activation was achieved by the addition of the activating kinases PDK1 and MAPKAPK2, lipid vesicles, and ATP. The extent of peptide phosphorylation was determined using a phospho-AKT substrate antibody and acceptor beads conjugated to Protein A and donor beads conjugated to streptavidin that bind to the biotin on the peptide. Excitation of the donor beads converted ambient oxygen to excited singlet oxygen which, when in close proximity to acceptor beads, reacted with acceptor beads resulting in signal amplification.
# Test inhibitors and controls ((S)-1-(5-(3-methyl-1H-indazol-5-yl)pyridin-3-yl)oxy)-3-phenylpropan-2-amine, 1-(1-(4-(7-phenyl-1H-imidazo[4,5-g]quinoxalin-6-yl)benzyl)piperidin-4-yl)-1H-benzo[d]imidazol-2(3H)-one, and 8-(4-(1-aminocyclobutyl)phenyl)-9-phenyl-[1,2,4]triazolo[3,4-f][1,6]naphthyridin-3(2H)-one) were prepared in 10% DMSO at 10-fold the desired final concentration, and added to each well of a reaction plate (Corning 96-well half-area solid white nonbinding surface plate) in a volume of 2.5 μL. […] After a 20 minute pre-incubation at room temperature, the kinase reaction was initiated by the addition of 5 μL of an activation mixture diluted in assay buffer containing biotinylated crosstide, PDK1, MAPKAPK2, DOPS/DOPC, PtdIns(3,4,5)P3, and ATP for final concentrations of 60 nM biotinylated crosstide, 0.1 nM PDK1, 0.7 nM MK2, 5.5 μM DOPS, 5.5 μM DOPC, 0.5 μM PtdIns(3,4,5)P3, and 50 μM ATP. The plates were incubated for 30 minutes at room temperature, and then stopped in the dark by the addition of 10 μL stop/detection mixture prepared in assay buffer containing EDTA, AlphaScreen™ Streptavidin Donor and Protein A Acceptor beads, and phospho-AKT substrate antibody for final concentrations of 10 mM EDTA, 500 ng/well of both AlphaScreen™ Streptavidin Donor beads and Protein A Acceptor beads, and phospho-AKT substrate antibody at a final dilution of 1:350. Assay plates were incubated for 90 minutes at room temperature in the dark, and the plates were read on a Perkin Elmer Envision Multilabel plate reader (excitation wavelength: […], emission wavelength: 570 nm).
# Envision Instrument Settings: • Instrument: Perkin Elmer Envision • Plate: 96 well • Program Name: • Excitation: Ex Top • Minor: General Dual—Slot 2 • Excitation Filter: CFP430 Ex. Slot 2 • Emission Filter Emission 579—Em slot 2 • 2nd Emission Filter: None • Measurement Height (mm): 3.8 • Excitation light (%): 1 • Detector gain: 1 • 2nd detector gain: 0 • # Flashes: 10 • # Flashed/AD: 1 • Reference Signal: 383722 • AD gain: 4 • Reference Excitation (%): 100
# Sequence of Full-length inactive AKT1 (P31749 whole entry): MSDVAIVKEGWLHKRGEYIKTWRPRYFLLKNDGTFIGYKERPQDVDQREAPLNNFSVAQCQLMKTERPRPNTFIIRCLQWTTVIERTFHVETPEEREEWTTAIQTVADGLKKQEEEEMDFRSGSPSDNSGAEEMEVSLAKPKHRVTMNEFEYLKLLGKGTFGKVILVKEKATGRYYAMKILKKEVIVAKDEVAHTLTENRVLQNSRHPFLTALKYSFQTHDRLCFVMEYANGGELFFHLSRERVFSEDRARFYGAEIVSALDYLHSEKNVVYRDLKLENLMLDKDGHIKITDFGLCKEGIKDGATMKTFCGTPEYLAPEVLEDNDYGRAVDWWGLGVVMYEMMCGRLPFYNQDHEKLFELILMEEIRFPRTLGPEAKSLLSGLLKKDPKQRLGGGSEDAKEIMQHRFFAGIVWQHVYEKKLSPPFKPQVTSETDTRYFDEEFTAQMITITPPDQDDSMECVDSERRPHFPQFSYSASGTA
row,Compound,IC50 [nM]
1,"NC1(c2ccc(-n3c(-c4ccccc4)nc4ccc(-c5ccccc5)nc43)cc2)CCC1 [Cmpd 5, 1-[4-(2,5-diphenyl-3H-imidazo[4,5-b]pyridin-3-yl)phenyl] cyclobutanamine]",12.6
2,"NC1(c2ccc(-n3c(-c4cccnc4F)nc4ccc(-c5ccccc5)nc43)cc2)CCC1 [Cmpd 7, 1-{4-[2-(2-fluoropyridin-3-yl)-5-phenyl-3H-imidazo[4,5-b]pyridin-3-yl]phenyl}cyclobutanamine]",11.5
3,"NC1(c2ccc(-n3c(-c4cccs4)nc4ccc(-c5cccc(N6CCOCC6)c5)nc43)cc2)CCC1 [Cmpd 12, 1-{4-[5-(3-morpholin-4-ylphenyl)-2-(2-thienyl)-3H-imidazo[4,5-b]pyridin-3-yl]phenyl} cyclobutanamine]",7.17
4,"NC1(c2ccc(-n3c(-c4ccsc4)nc4ccc(-c5cccc(N6CCOCC6)c5)nc43)cc2)CCC1 [Cmpd 13, 1-{4-[5-(3-morpholin-4-ylphenyl)-2-(3-thienyl)-3H-imidazo[4,5-b]pyridin-3-yl]phenyl} cyclobutanamine]",5.78
5,"NC1(c2ccc(-n3c(-c4ccncc4)nc4ccc(-c5cccc(N6CCOCC6)c5)nc43)cc2)CCC1 [Cmpd 16, 1-{4-[5-(3-morpholin-4-ylphenyl)-2-pyridin-4-yl-3H-imidazo[4,5-b]pyridin-3-yl]phenyl} cyclobutanamine]",7.75
6,"NC1(c2ccc(-n3c(-c4cc[nH]n4)nc4ccc(-c5cccc(N6CCOCC6)c5)nc43)cc2)CCC1 [Cmpd 18, 1-{4-[5-(3-morpholin-4-ylphenyl)-2-(1H-pyrazol-3-yl)-3H-imidazo[4,5-b]pyridin-3-yl]phenyl} cyclobutanamine]",7.27
7,"COC(=O)c1ccccc1-c1nc2ccc(-c3cccc(N4CCOCC4)c3)nc2n1-c1ccc(C2(N)CCC2)cc1 [Cmpd 20, methyl 2-{3-[4-(1-aminocyclobutyl)phenyl]-5-(3-morpholin-4-ylphenyl)-3H-imidazo[4,5-b]pyridin-2-yl} benzoate]",5260
8,"NC1(c2ccc(-n3c(C4CCCCC4)nc4ccc(-c5cccc(N6CCOCC6)c5)nc43)cc2)CCC1 [Cmpd 24, 1-{4-[2-cyclohexyl-5-(3-morpholin-4-ylphenyl)-3H-imidazo[4,5-b]pyridin-3-yl]phenyl} cyclobutanamine]",1160
9,"NC1(c2ccc(-n3c(-c4ccc(F)cc4)nc4ccc(-c5cccc(N6CCOCC6)c5)nc43)cc2)CCC1 [Cmpd 31, 1-{4-[2-(4-fluorophenyl)-5-(3-morpholin-4-ylphenyl)-3H-imidazo[4,5-b]pyridin-3-yl]phenyl}cyclobutanamine]",35.5
10,"NC1(c2ccc(-n3c(-c4ccc(Cl)cc4)nc4ccc(-c5cccc(N6CCOCC6)c5)nc43)cc2)CCC1 [Cmpd 34, 1-{4-[2-(4-chlorophenyl)-5-(3-morpholin-4-ylphenyl)-3H-imidazo[4,5-b]pyridin-3-yl]phenyl}cyclobutanamine]",5.9
11,"NC(=O)c1cccc(-c2ccc3nc(-c4ccccc4)n(-c4ccc(C5(N)CCC5)cc4)c3n2)c1 [Cmpd 35, 3-{3-[4-(1-aminocyclobutyl)phenyl]-2-phenyl-3H-imidazo[4,5-b]pyridin-5-yl}benzamide]",6.27
12,"NC1(c2ccc(-n3c(C4CC4)nc4ccc(-c5cccc(N6CCOCC6)c5)nc43)cc2)CCC1 [Cmpd 44, 1-{4-[2-cyclopropyl-5-(3-morpholin-4-ylphenyl)-3H-imidazo[4,5-b]pyridin-3-yl]phenyl}cyclobutanamine]",871

# Further compounds by falling IC50, results first:
row,IC50 [nM],Compound
1,5.71,"CN(C)C(=O)c1cccc(-c2ccc3nc(-c4ccccc4)n(-c4ccc(C5(N)CCC5)cc4)c3n2)c1 [Cmpd 36, 3-{3-[4-(1-aminocyclobutyl)phenyl]-2-phenyl-3H-imidazo[4,5-b]pyridin-5-yl}-N,N-dimethylbenzamide]"
2,5.67,"NC1(c2ccc(-n3c(-c4cc[nH]c4)nc4ccc(-c5cccc(N6CCOCC6)c5)nc43)cc2)CCC1 [Cmpd 19, 1-{4-[5-(3-morpholin-4-ylphenyl)-2-(1H-pyrrol-3-yl)-3H-imidazo[4,5-b]pyridin-3-yl]phenyl} cyclobutanamine]"
3,4.96,CNC(=O)c1cccc(-c2ccc3nc(-c4ccccc4)n(-c4ccc(C5(N)CCC5)cc4)c3n2)c1 [Cmpd 37]
4,4.78,"NC1(c2ccc(-n3c(-c4cccc(F)c4)nc4ccc(-c5cccc(N6CCOCC6)c5)nc43)cc2)CCC1 [Cmpd 30, 1-{4-[2-(3-fluorophenyl)-5-(3-morpholin-4-ylphenyl)-3H-imidazo[4,5-b]pyridin-3-yl]phenyl}cyclobutanamine]"
5,4.74,"NC1(c2ccc(-n3c(-c4nccs4)nc4ccc(-c5cccc(N6CCOCC6)c5)nc43)cc2)CCC1 [Cmpd 17, 1-{4-[5-(3-morpholin-4-ylphenyl)-2-(1,3-thiazol-2-yl)-3H-imidazo[4,5-b]pyridin-3-yl]phenyl} cyclobutanamine]"
6,4.42,"NC1(c2ccc(-n3c(-c4ccc(O)cc4)nc4ccc(-c5cccc(N6CCOCC6)c5)nc43)cc2)CCC1 [Cmpd 26, 4-{3-[4-(1-aminocyclobutyl)phenyl]-5-(3-morpholin-4-ylphenyl)-3H-imidazo[4,5-b]pyridin-2-yl}phenol]"
7,4.3,"NC1(c2ccc(-n3c(-c4cccnc4)nc4ccc(-c5cccc(N6CCOCC6)c5)nc43)cc2)CCC1 [Cmpd 15, 1-{4-[5-(3-morpholin-4-ylphenyl)-2-pyridin-3-yl-3H-imidazo[4,5-b]pyridin-3-yl]phenyl} cyclobutanamine]"
8,4.27,"NC1(c2ccc(-n3c(-c4cnccn4)nc4ccc(-c5cccc(N6CCOCC6)c5)nc43)cc2)CCC1 [Cmpd 42, 1-{4-[5-(3-morpholin-4-ylphenyl)-2-pyrazin-2-yl-3H-imidazo[4,5-b]pyridin-3-yl]phenyl} cyclobutanamine]"
9,4.13,"NC1(c2ccc(-n3c(-c4ccccc4)nc4ccc(Nc5ccccc5)nc43)cc2)CCC1 [Cmpd 47, 3-[4-(1-aminocyclobutyl)phenyl]-N,2-diphenyl-3H-imidazo[4,5-b]pyridin-5-amine]"
10,3.47,"NC1(c2ccc(-n3c(-c4ccccc4)nc4ccc(-c5cccc(N6CCOCC6)c5)nc43)cc2)CCC1 [Cmpd 9, 1-{4-[5-(3-morpholin-4-ylphenyl)-2-phenyl-3H-imidazo[4,5-b]pyridin-3-yl]phenyl}cyclobutanamine]"
11,1.99,"NC1(c2ccc(-n3c(-c4ccccc4F)nc4ccc(-c5cccc(N6CCOCC6)c5)nc43)cc2)CCC1 [Cmpd 11, 1-{4-[2-(2-fluorophenyl)-5-(3-morpholin-4-ylphenyl)-3H-imidazo[4,5-b]pyridin-3-yl]phenyl}cyclobutanamine]"
12,1.69,"NC1(c2ccc(-n3c(-c4ccccn4)nc4ccc(-c5cccc(N6CCOCC6)c5)nc43)cc2)CCC1 [Cmpd 14, 1-{4-[5-(3-morpholin-4-ylphenyl)-2-pyridin-2-yl-3H-imidazo[4,5-b]pyridin-3-yl]phenyl} cyclobutanamine]"
